Values quoted from earlier work as cited in US9920373B2, “Biomarkers of response to proteasome inhibitors” (MILLENNIUM PHARMACEUTICALS, INC., priority 2011, dated 2018).

Details: upon exposure to aqueous solutions or plasma; cited from earlier work

For `CC(C)C[C@H](NC(=O)CNC(=O)c1cc(Cl)ccc1Cl)B1OC(=O)C(CC(=O)O)(CC(=O)O)O1` [MLN9708, 2,2′-{2-[(1R)-1-({[(2,5dichlorobenzoyl)amino]acetyl}amino)-3-methylbutyl]-5-oxo-1,3,2-dioxaborolane-4,4-diyl}diacetic acid], the “hydrolysis to the biologically active form” value is given as “immediately hydrolyzes to MLN2238”.
